Results published in patent publication US11400058B2, “Intravenous formulations of coenzyme Q10 (CoQ10) and methods of use thereof” (Berg LLC, priority 2010, dated 2022).
Marks after values point to notes of the source that are not given here.

Assay: 4-week repeat-dose toxicology study in rats with 2-week recovery (Study 20000328)
[1] = 125 mg/kg M, end of dosing, animals affected
[2] = 125 mg/kg M, end of dosing, animals of 10
[3] = 125 mg/kg M, end of recovery, animals of 5
[4] = 250 mg/kg F, end of dosing, animals of 10

COC1=C(OC)C(=O)C(C/C=C(\C)CC/C=C(\C)CC/C=C(\C)CC/C=C(\C)CC/C=C(\C)CC/C=C(\C)CC/C=C(\C)CC/C=C(\C)CC/C=C(\C)CCC=C(C)C)=C(C)C1=O [CoQ10, Coenzyme Q10]
Erythrocytes (125 mg/kg M, end of dosing): 7.59* 10^6/cmm
Food Consumption, percent difference from controls (125 mg/kg M, end of dosing): −9.2* %
GGT (125 mg/kg M, end of dosing): 0.09 IU/L
Hematocrit (125 mg/kg M, end of dosing): 41.6* %
Hemoglobin (125 mg/kg M, end of dosing): 14.3 g/dL
Leukocytes (125 mg/kg M, end of dosing): 11.03 10^3/cmm
Liver weight (absolute), percent difference from controls (125 mg/kg M, end of dosing): −7.2%
Lymphocytes (125 mg/kg M, end of dosing): 8.70* 10^3/cmm
Neutrophils (125 mg/kg M, end of dosing): 1.71 10^3/cmm
Spleen weight (absolute), percent difference from controls (125 mg/kg M, end of dosing): −23.4%
Injection Site Mononuclear Cell Infiltration [1]: 1
Injection Site Mononuclear Cell Infiltration, Marked [1]: 1
Injection Site Mononuclear Cell Infiltration, Mild [1]: 0
Injection Site Mononuclear Cell Infiltration, Minimal [1]: 0
Injection Site Mononuclear Cell Infiltration, Moderate [1]: 0
Bone Marrow, Sternum Hyperplasia [2]: 2
Bone Marrow, Sternum Hyperplasia, Mild [2]: 0
Bone Marrow, Sternum Hyperplasia, Minimal [2]: 2
Gross Pathology: Enlarged Pancreatic Lymph Nodes [2]: 1
Gross Pathology: Pale Adrenal [2]: 0
Gross Pathology: Pale Liver [2]: 9
Gross Pathology: Pale Lymph Nodes [2]: 4
Gross Pathology: Pale Pituitary [2]: 0
Gross Pathology: Pale SQ Skin [2]: 1
Liver Focal Necrosis [2]: 0
Liver Focal Necrosis, Minimal [2]: 0
Liver Histiocytic Infiltration [2]: 6
Liver Histiocytic Infiltration, Mild [2]: 3
Liver Histiocytic Infiltration, Minimal [2]: 3
Liver Histiocytic Infiltration, Moderate [2]: 0
Liver Vacuolation [2]: 8
Liver Vacuolation, Mild [2]: 4
Liver Vacuolation, Minimal [2]: 4
Lymph Node, Man. Histiocytic Infiltration [2]: 7
Lymph Node, Man. Histiocytic Infiltration, Mild [2]: 4
Lymph Node, Man. Histiocytic Infiltration, Minimal [2]: 3
Lymph Node, Man. Histiocytic Infiltration, Moderate [2]: 0
Lymph Node, Mes. Histiocytic Infiltration [2]: 10
Lymph Node, Mes. Histiocytic Infiltration, Mild [2]: 6
Lymph Node, Mes. Histiocytic Infiltration, Minimal [2]: 4
Lymph Node, Mes. Histiocytic Infiltration, Moderate [2]: 0
Skin, Dermis Histiocytic Infiltration [2]: 1
Skin, Dermis Histiocytic Infiltration, Marked [2]: 1
Skin, Dermis Histiocytic Infiltration, Mild [2]: 0
Skin, Dermis Histiocytic Infiltration, Moderate [2]: 0
Skin, SQ Histiocytic Infiltration [2]: 0
Skin, SQ Histiocytic Infiltration, Mild [2]: 0
Spleen Histiocytic Infiltration [2]: 8
Spleen Histiocytic Infiltration, Marked [2]: 0
Spleen Histiocytic Infiltration, Mild [2]: 5
Spleen Histiocytic Infiltration, Moderate [2]: 3
ALT (125 mg/kg M, end of recovery): 27 IU/L
APPT (125 mg/kg M, end of recovery): 15.9* seconds
AST (125 mg/kg M, end of recovery): 94 IU/L
Body Weight, percent difference from controls (125 mg/kg M, end of recovery): −2.2%
Food Consumption, percent difference from controls (125 mg/kg M, end of recovery): +1.2%
GGT (125 mg/kg M, end of recovery): 0.00 IU/L
Liver weight (absolute), percent difference from controls (125 mg/kg M, end of recovery): −2.5%
Spleen weight (absolute), percent difference from controls (125 mg/kg M, end of recovery): +5.9%
Adrenal Gland Vacuolation [3]: 5
Adrenal Gland Vacuolation, Marked [3]: 0
Adrenal Gland Vacuolation, Mild [3]: 2
Adrenal Gland Vacuolation, Minimal [3]: 0
Adrenal Gland Vacuolation, Moderate [3]: 3
Gross Pathology: Enlarged Spleen [3]: 1
Gross Pathology: Pale Iliac Lymph Node [3]: 2
Gross Pathology: Pale Liver [3]: 5
Gross Pathology: Pale Pancreatic Lymph Node [3]: 2
Liver Focal Necrosis [3]: 3
Liver Focal Necrosis, Mild [3]: 1
Liver Focal Necrosis, Minimal [3]: 2
Liver Histiocytic Infiltration [3]: 5
Liver Histiocytic Infiltration, Mild [3]: 1
Liver Histiocytic Infiltration, Minimal [3]: 4
Liver Histiocytic Infiltration, Moderate [3]: 0
Liver Multifocal Necrosis [3]: 0
Liver Multifocal Necrosis, Mild [3]: 0
Liver Multifocal Necrosis, Moderate [3]: 0
Liver Vacuolation [3]: 5
Liver Vacuolation, Mild [3]: 4
Liver Vacuolation, Minimal [3]: 1
Liver Vacuolation, Moderate [3]: 0
Lymph Node, Man. Histiocytic Infiltration [3]: 5
Lymph Node, Man. Histiocytic Infiltration, Mild [3]: 2
Lymph Node, Man. Histiocytic Infiltration, Minimal [3]: 3
Lymph Node, Man. Histiocytic Infiltration, Moderate [3]: 0
Lymph Node, Mes. Histiocytic Infiltration [3]: 5
Lymph Node, Mes. Histiocytic Infiltration, Mild [3]: 1
Lymph Node, Mes. Histiocytic Infiltration, Minimal [3]: 3
Spleen Histiocytic Infiltration [3]: 3
Spleen Histiocytic Infiltration, Marked [3]: 0
Spleen Histiocytic Infiltration, Mild [3]: 1
Spleen Histiocytic Infiltration, Minimal [3]: 2
Spleen Histiocytic Infiltration, Moderate [3]: 0
Died or Sacrificed Moribund (250 mg/kg F, animals of 15): 0
ALT (250 mg/kg F, end of dosing): 22 IU/L
APPT (250 mg/kg F, end of dosing): 14.5* seconds
AST (250 mg/kg F, end of dosing): 88 IU/L
Body Weight, percent difference from controls (250 mg/kg F, end of dosing): −8.9* %
Eosinophils (250 mg/kg F, end of dosing): 0.10 10^3/cmm
Erythrocytes (250 mg/kg F, end of dosing): 6.12 10^6/cmm
Food Consumption, percent difference from controls (250 mg/kg F, end of dosing): −18.3* %
GGT (250 mg/kg F, end of dosing): 0.25 IU/L
Hematocrit (250 mg/kg F, end of dosing): 39.2* %
Hemoglobin (250 mg/kg F, end of dosing): 13.2 g/dL
Leukocytes (250 mg/kg F, end of dosing): 13.15* 10^3/cmm
Liver weight (absolute), percent difference from controls (250 mg/kg F, end of dosing): +14.5* %
Lymphocytes (250 mg/kg F, end of dosing): 10.50* 10^3/cmm
Neutrophils (250 mg/kg F, end of dosing): 1.97* 10^3/cmm
Spleen weight (absolute), percent difference from controls (250 mg/kg F, end of dosing): +51.0* %
Adrenal Gland Vacuolation [4]: 10
Adrenal Gland Vacuolation, Mild [4]: 3
Adrenal Gland Vacuolation, Minimal [4]: 0
Adrenal Gland Vacuolation, Moderate [4]: 7
Bone Marrow, Sternum Hyperplasia [4]: 0
Bone Marrow, Sternum Hyperplasia, Mild [4]: 0
Bone Marrow, Sternum Hyperplasia, Minimal [4]: 0
Gross Pathology: Enlarged Pancreatic Lymph Nodes [4]: 1
Gross Pathology: Pale Adrenal [4]: 2
Gross Pathology: Pale Liver [4]: 10
Gross Pathology: Pale Lymph Nodes [4]: 7
Gross Pathology: Pale Ovaries [4]: 9
Gross Pathology: Pale Pituitary [4]: 0
Gross Pathology: Pale SQ Skin [4]: 4
Injection Site Mononuclear Cell Infiltration [4]: 10
Injection Site Mononuclear Cell Infiltration, Marked [4]: 2
Injection Site Mononuclear Cell Infiltration, Mild [4]: 1
Injection Site Mononuclear Cell Infiltration, Minimal [4]: 0
Injection Site Mononuclear Cell Infiltration, Moderate [4]: 7
Liver Focal Necrosis [4]: 0
Liver Focal Necrosis, Minimal [4]: 0
Liver Histiocytic Infiltration [4]: 9
Liver Histiocytic Infiltration, Mild [4]: 5
Liver Histiocytic Infiltration, Minimal [4]: 4
Liver Histiocytic Infiltration, Moderate [4]: 0
Liver Vacuolation [4]: 10
Liver Vacuolation, Mild [4]: 10
Liver Vacuolation, Minimal [4]: 0
Lymph Node, Man. Histiocytic Infiltration [4]: 9
Lymph Node, Man. Histiocytic Infiltration, Mild [4]: 1
Lymph Node, Man. Histiocytic Infiltration, Minimal [4]: 7
Lymph Node, Man. Histiocytic Infiltration, Moderate [4]: 1
Lymph Node, Mes. Histiocytic Infiltration [4]: 9
Lymph Node, Mes. Histiocytic Infiltration, Mild [4]: 4
Lymph Node, Mes. Histiocytic Infiltration, Minimal [4]: 5
Lymph Node, Mes. Histiocytic Infiltration, Moderate [4]: 0
Ovary Histiocytic Infiltration [4]: 10
Ovary Histiocytic Infiltration, Mild [4]: 6
Ovary Histiocytic Infiltration, Minimal [4]: 0
Ovary Histiocytic Infiltration, Moderate [4]: 4
Skin, Dermis Histiocytic Infiltration [4]: 2
Skin, Dermis Histiocytic Infiltration, Marked [4]: 0
Skin, Dermis Histiocytic Infiltration, Mild [4]: 0
Skin, Dermis Histiocytic Infiltration, Moderate [4]: 2
Skin, SQ Histiocytic Infiltration [4]: 0
Skin, SQ Histiocytic Infiltration, Mild [4]: 0
